{"source": "patent US20100160454A1", "about": "“ANTIMICROBIAL AGENTS, COMPOSITIONS AND PRODUCTS CONTAINING THE SAME, AND METHODS OF USING THE COMPOSITIONS AND PRODUCTS” (Eastman Chemical Company, priority 2008, published 2010)", "key": {"[1]": {"experiment": "Water extraction of 1,4-CHDM from biodiesel, gas chromatography", "type": "physicochemical", "settings": "soy biodiesel with theoretical 0.024 wt % CHDM, 0.90% water added, 3 days, centrifuged", "procedure": "A solution of 59.5 wt % 1,4-CHDM in ethoxydiglycol (Eastman DE solvent) was prepared by weighing into a vial 1.36 g ethoxydiglycol and 2.00 g 1,4-CHDM. The mixture was heated to 55° C. to melt the 1,4-CHDM, mixed on a vortex mixer, then placed on a rocker mixer overnight at room temperature to allow all of the 1,4-CHDM to dissolve.\n1,4-CHDM was added to soy biodiesel as follows: 60.00 g soy biodiesel was weighed into 4-oz jar. 0.0246 g of the above CHDM/DE solution was weighed into the biodiesel. The sample was mixed using a magnetic stirrer. There was no visible separation after mixing and the biodiesel remained clear. The theoretical amount of CHDM in the biodiesel is 0.024 wt %. 5.00 g was removed from the sample for analysis.\nTo make a biodiesel mixture containing 0.90% water, 0.50 g deionized water was added to the remaining 55.0 g 1,4-CHDM/DE/biodiesel mixture and mixed with a magnetic stirrer. The mixture became cloudy when stirred and also contained visible water droplets. The mixture was allowed to sit undisturbed for 3 days, during which time a white aqueous layer appeared on the bottom and the biodiesel (top layer) still remained cloudy. The mixture was centrifuged to separate as much water as possible from the biodiesel. […] The 1,4-CHDM/DE/biodiesel mixtures before and after water extraction and the bottom aqueous layer were analyzed by gas chromatography for 1,4-CHDM. […]"}, "[2]": {"tested_on": "Staphylococcus aureus ATCC 25923", "experiment": "Determination of MIC and MLC in test broth", "type": "cell-based", "settings": "Staphylococcus aureus ATCC 25923, 30-day subculture", "procedure": "(§1) Two antimicrobial endpoints were investigated. The minimum inhibitory concentration (MIC), which identifies the lowest concentration of test material at which growth for a specific organism is inhibited (by a minimum of 3 log units), reflects “biostatic activity”. The minimum lethal concentration (MLC), or lowest concentration that kills the organism and at which subculturing with growth is not possible, reflects “biocidal activity”. 1,4-CHDM and propylene glycol (PG) were added to previously sterilized screw-cap glass tubes and diluted with Peptone Water Broth with 2 wt % Dextrose (=test broth) to the following dilutions (weight percent): 0.05, 0.075, 0.125, 0.25, 0.5, 0.75, 1.25, 2.5, 5.0, 7.5, 10.0, 15.0, 20.0.\n(§2) Each of 12 sets of the above test tubes were challenged with specific organisms (see Table 5) to produce a contamination of between 1.0×10^5 cfu/g and 1.0×10^6 cfu/g in the test broth to which no 1,4-CHDM or propylene glycol had been added. These challenge organisms were prepared in TSB broth, allowed to grow for 72 hours at 35° C.+/−2° C., centrifuged at 2500 rpm for 5 minutes, and the supernatant broth was removed. The microbial pellet was then re-diluted with sterile buffered water to a turbidity that matched previous 1.0×10^6 cfu/g concentrations of that organism's specific growth curve. This challenge was repeated on day 3. Plate counts of both challenges enumerated to within 1.0×10^5+/−5,000 cfu/g after 7 days incubation at 35° C.+/−2° C.\n(§3) These tubes were mixed well by inversion (minimum of 25 inversions) and incubated at 35° C.+/−2° C. The tubes were inverted again (minimum of 25 times) on the third and seventh day of incubation and prior to each subculture.\n(§4) These subcultures were incubated under optimal conditions and nutrition for no less than 5 days. Subcultures of 0.1 ml, undiluted and diluted 1:10, 1:100, . . . , and 1:10,000, were transferred to plates using the spread plate method onto Plate Count Agar; and SAB Dextrose Agar in addition for the Candida and Aspergillus species; and incubated as follows: 35° C.+/−2° C. for the Plate Count Agar and 22° C.+/−2° C. for the SAB Dextrose plates of Candida albicans and Aspergillus niger. Negative results were not reported before 7 days incubation and counts were performed after no less than 5 days incubation. Counts of Candida and Aspergillus species were made on the agar representing the highest count observed, usually the SAB Dextrose."}, "Streptococcus pyogenes": {"tested_on": "Streptococcus pyogenes", "experiment": "Determination of MIC and MLC in test broth", "type": "cell-based", "settings": "30-day subculture", "procedure": "as §1, §2, §3, §4"}, "Streptococcus faecalis": {"tested_on": "Streptococcus faecalis", "experiment": "Determination of MIC and MLC in test broth", "type": "cell-based", "settings": "30-day subculture", "procedure": "as §1, §2, §3, §4"}, "[3]": {"tested_on": "Penicillium notatum ATCC 36740", "experiment": "Determination of MIC and MLC in test broth", "type": "cell-based", "settings": "Penicillium notatum ATCC 36740, 30-day subculture", "procedure": "as §1, §2, §3, §4"}, "[4]": {"tested_on": "Candida albicans ATCC 10231", "experiment": "Determination of MIC and MLC in test broth", "type": "cell-based", "settings": "Candida albicans ATCC 10231, 30-day subculture", "procedure": "as §1, §2, §3, §4"}}}
{"compound": "OCC1CCC(CO)CC1", "note": "(stereo not drawn) [1,4-CHDM, 1,4-cyclohexanedimethanol]", "values": [{"measurement": "1,4-CHDM content of the aqueous bottom layer", "setting": "[1]", "result": 0.38, "unit": "wt %"}, {"measurement": "MIC 30 DAYS", "setting": "[2]", "result": 5, "unit": "wt %"}, {"measurement": "MLC 30 DAYS", "setting": "[2]", "result": ">20", "unit": "wt %"}, {"measurement": "MIC 30 DAYS", "setting": "Streptococcus pyogenes", "result": 2.5, "unit": "wt %"}, {"measurement": "MLC 30 DAYS", "setting": "Streptococcus pyogenes", "result": 20, "unit": "wt %"}, {"measurement": "MIC 30 DAYS", "setting": "Streptococcus faecalis", "result": 2.5, "unit": "wt %"}, {"measurement": "MLC 30 DAYS", "setting": "Streptococcus faecalis", "result": ">20", "unit": "wt %"}, {"measurement": "MIC 30 DAYS", "setting": "[3]", "result": 5, "unit": "wt %"}, {"measurement": "MLC 30 DAYS", "setting": "[3]", "result": ">20", "unit": "wt %"}, {"measurement": "MIC 30 DAYS", "setting": "[4]", "result": 2.5, "unit": "wt %"}, {"measurement": "MLC 30 DAYS", "setting": "[4]", "result": 20, "unit": "wt %"}]}
{"compound": "CC(O)CO", "note": "(stereo not drawn) [PG, propylene glycol]", "values": [{"measurement": "MIC 30 DAYS", "setting": "[2]", "result": 20, "unit": "wt %"}, {"measurement": "MLC 30 DAYS", "setting": "[2]", "result": ">20", "unit": "wt %"}, {"measurement": "MIC 30 DAYS", "setting": "Streptococcus pyogenes", "result": 20, "unit": "wt %"}, {"measurement": "MLC 30 DAYS", "setting": "Streptococcus pyogenes", "result": ">20", "unit": "wt %"}, {"measurement": "MIC 30 DAYS", "setting": "Streptococcus faecalis", "result": 20, "unit": "wt %"}, {"measurement": "MLC 30 DAYS", "setting": "Streptococcus faecalis", "result": ">20", "unit": "wt %"}, {"measurement": "MIC 30 DAYS", "setting": "[3]", "result": ">20", "unit": "wt %"}, {"measurement": "MLC 30 DAYS", "setting": "[3]", "result": ">20", "unit": "wt %"}, {"measurement": "MIC 30 DAYS", "setting": "[4]", "result": 20, "unit": "wt %"}, {"measurement": "MLC 30 DAYS", "setting": "[4]", "result": ">20", "unit": "wt %"}]}
